Measured values taken from ChEMBL document CHEMBL5360560, “Anti-Vibrio potential of natural products from marine microorganisms” (Eur J Med Chem, 2023).
Converted amounts (≈) assume the structure as drawn. Blank lines part the entries; values can stand above or below the compound they belong to.

Experiments:
Type in all cases: functional
Vibrio mediterranei = assay: Antimicrobial activity against Vibrio mediterranei assessed as bacterial growth inhibition
Vibrio brasiliensis = assay: Antimicrobial activity against Vibrio brasiliensis assessed as bacterial growth inhibition
Vibrio scophthalmi = assay: Antimicrobial activity against Vibrio scophthalmi assessed as bacterial growth inhibition
Vibrio vulnificus = assay: Antibacterial activity against Vibrio vulnificus MCCC E1758 assessed as bacterial growth inhibition measured after 24 hrs by resazurin dye based assay
Vibrio anguillarum = assay: Antimicrobial activity against Vibrio anguillarum QDIO-1 assessed as bacterial growth inhibition

- MIC (Vibrio mediterranei): 8 µg/mL (≈ 17 µM)
- MIC (Vibrio brasiliensis): 9 µg/mL (≈ 19.1 µM)
- MIC (Vibrio scophthalmi): 8 µg/mL (≈ 17 µM)
Compound: C=C(C(C)C)[C@H](C[C@@H](C)[C@H]1CC[C@H]2[C@@H]3C(=O)C=C4C[C@@H](O)CC[C@]4(C)[C@H]3CC[C@]12C)OC(C)=O

- MIC (Vibrio vulnificus): 7.4 µg/mL (≈ 14.2 µM)
Compound: CC[C@H](C)/C=C/C1=CC2=C(Cl)C(=O)[C@@]3(C)OC(=O)C(C(=O)[C@@H](C)[C@@H](C)O)=C3C2=CN1CCOCCO

- MIC (Vibrio anguillarum): 32 µg/mL (≈ 75.4 µM)
Compound: CC(C)[C@@H](C)/C=C/[C@@H](C)[C@H]1CC[C@@H]2[C@]1(C)CC[C@H]1[C@]23O[C@H]3C(=O)C2=CC(=O)CC[C@@]21C
